The values that follow are results of earlier work, collected in patent US20120021445A1, “Pluripotent Stem Cells for Drug Induced Myopathy and Malignant Hyperthermia” (priority 2010, published 2012).

Each structure is given as a SMILES string.

The conditions of data set [1]: rhabdomyolysis defined as acute elevation of CK (>15 000 ULN); unit not given.

Take `CC(C)c1c(C(=O)Nc2ccccc2)c(-c2ccccc2)c(-c2ccc(F)cc2)n1CC[C@@H](O)C[C@@H](O)CC(=O)O` [atrovarstatin]: in data set [1], the “reported incidence of rhabdomyolysis” value is listed as 0.04.
On to `O=C1CN(/N=C/c2ccc(-c3ccc([N+](=O)[O-])cc3)o2)C(O)=N1` [dantrolene], for which the “lack of efficacy in malignant hyperthermia patients” value was “up to 5%”.
As to `CC[C@H](C)C(=O)O[C@H]1C[C@@H](C)C=C2C=C[C@H](C)[C@H](CC[C@@H]3C[C@@H](O)CC(=O)O3)[C@H]21` [lovostatin], the “reported incidence of rhabdomyolysis” value in data set [1] was 0.19.
As to `CC[C@H](C)C(=O)O[C@H]1C[C@H](O)C=C2C=C[C@H](C)[C@H](CC[C@@H](O)C[C@@H](O)CC(=O)O)[C@H]21` [pravastatin], the “reported incidence of rhabdomyolysis” value in data set [1] is 0.04.
